Structures can show the parent of a compound that is named as a salt. Where two headings read alike, the source gives them in different places. Starred links: 1 amine or outer side, 2 acyl side, 3 side chain; linkers in the order of their positions; H or OH if unused. Positions of bridges follow the written chain, without caps; N, C: chain ends. Non-standard residues stand in square brackets, D forms with d. Residues, ends and D or L forms follow the SMILES beside them. Chains are numbered I, II in the order given. Actinocin(9to1) = Cc1c2oc3c(C)ccc(C(=O)[*:1])c3nc-2c(C(=O)[*:2])c(N)c1=O; NMeV = CN[C@H](C(=O)O)C(C)C; Sar = CNCC(=O)O
Target: T1, human AspH (His6-AspH315–758) (Homo sapiens, UniProt Q12797)
T1 construct: N-Terminally His6-tagged human AspH315–758 (His6-AspH315–758) was produced in Escherichia coli BL21 (DE3) cells; made in house; host or cells: Escherichia coli BL21 (DE3), pET-28a(+) vector
T1 sequence (Q12797 315-758): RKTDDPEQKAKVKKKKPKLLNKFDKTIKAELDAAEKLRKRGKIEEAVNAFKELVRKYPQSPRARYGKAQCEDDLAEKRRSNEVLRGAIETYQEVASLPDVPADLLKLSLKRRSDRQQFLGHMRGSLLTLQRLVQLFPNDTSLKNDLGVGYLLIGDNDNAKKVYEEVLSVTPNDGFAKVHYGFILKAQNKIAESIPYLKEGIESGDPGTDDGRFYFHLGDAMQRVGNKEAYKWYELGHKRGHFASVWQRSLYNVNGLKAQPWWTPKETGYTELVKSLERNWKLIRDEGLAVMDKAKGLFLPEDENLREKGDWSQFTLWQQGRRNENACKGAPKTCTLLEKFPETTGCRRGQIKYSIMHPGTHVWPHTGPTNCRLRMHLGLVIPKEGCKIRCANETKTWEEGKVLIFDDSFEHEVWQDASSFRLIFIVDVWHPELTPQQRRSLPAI
Assay: SPE-MS AspH inhibition assay (hFX-CP101-119 substrate hydroxylation)
Type: biochemical

[1] = AspH-inhibitor screening, 384-well Plate 1
[2] = AspH-inhibitor screening, 384-well Plate 1, substrate conversion
[3] = AspH-inhibitor screening, Plate 1-duplicate
[4] = AspH-inhibitor screening, Plate 1-duplicate, substrate conversion

Compound | Plate 1 (% inhibition) [1] | Plate 1 (% conversion) [2] | Plate 1-duplicate (% inhibition) [3] | Plate 1-duplicate (% conversion) [4] | Plate 1 (% conversion) | Plate 1 (% inhibition) | Plate 1-duplicate (% conversion) | Plate 1-duplicate (% inhibition)
Nc1ccn([C@@H]2O[C@H](CO)[C@@H](O)[C@@H]2O)c(=O)n1 [Cytarabine hydrochloride] | 2.14% | 48.76% | 3.50% | 50.30% |  |  |  | 
CNC(=O)c1cc(Oc2ccc(NC(=O)Nc3cc(C(C)(C)C)nn3-c3ccc4ncccc4c3)c(F)c2)ccn1 [DCC-2036_Rebastinib] | 0.16% | 49.67% | 3.62% | 50.25% |  |  |  | 
CC(C)(C)c1nc(-c2cccc(NS(=O)(=O)c3c(F)cccc3F)c2F)c(-c2ccnc(N)n2)s1.CS(=O)(=O)O [Dabrafenib Mesylate] | 21.60% | 39.78% | 12.13% | 46.02% |  |  |  | 
CN(C)/N=N/c1[nH]cnc1C(N)=O [Dacarbazine] | -0.11% | 49.80% | 7.93% | 48.11% |  |  |  | 
COc1cc2ncnc(Nc3ccc(F)c(Cl)c3)c2cc1NC(=O)/C=C/CN1CCCCC1.O [Dacomitinib (monohydrate) (PF-00299804)] | -68.38% | 81.33% | -15.02% | 59.49% |  |  |  | 
Cc1c2oc3c(C)ccc(C(=O)N[C@@H]4C(=O)N[C@H](C(C)C)C(=O)N5CCC[C@H]5C(=O)N(C)CC(=O)N(C)[C@@H](C(C)C)C(=O)O[C@@H]4C)c3nc-2c(C(=O)N[C@@H]2C(=O)N[C@H](C(C)C)C(=O)N3CCC[C@H]3C(=O)N(C)CC(=O)N(C)[C@@H](C(C)C)C(=O)O[C@@H]2C)c(N)c1=O [Dactinomycin] (I: T[dV]P[Sar][NMeV] / II: T[dV]P[Sar][NMeV]; ester I:1-I:C, II:1-II:C; linker I:N-II:N via Actinocin(9to1)) | -0.066% | 49.78% | -9.41% | 56.71% |  |  |  | 
Cc1nc(Nc2ncc(C(=O)Nc3c(C)cccc3Cl)s2)cc(N2CCN(CCO)CC2)n1 [Dasatinib] | -20.82% | 59.36% | -21.12% | 62.52% |  |  |  | 
COc1cccc2c1C(=O)c1c(O)c3c(c(O)c1C2=O)C[C@@](O)(C(C)=O)C[C@@H]3O[C@H]1C[C@H](N)[C@H](O)[C@H](C)O1 [Daunorubicin hydrochloride] | -28.45% | 62.89% | -40.01% | 71.89% |  |  |  | 
Nc1ncn([C@H]2C[C@H](O)[C@@H](CO)O2)c(=O)n1 [Decitabine (Dacogen)] | 4.17% | 47.83% | 0.31% | 51.89% |  |  |  | 
CC(=O)N(O)CCCCCNC(=O)CCC(=O)N(O)CCCCCNC(=O)CCC(=O)N(O)CCCCCN [Deferoxamine mesylate] | 14.63% | 43.00% | 7.26% | 48.44% |  |  |  | 
C[C@@H]1C[C@H]2[C@@H]3CCC4=CC(=O)C=C[C@]4(C)[C@@]3(F)[C@@H](O)C[C@]2(C)[C@@]1(O)C(=O)CO [Dexamethasone (Decadron)] | 0.59% | 49.48% | 1.33% | 51.38% |  |  |  | 
C[C@@H](CN1CC(=O)NC(=O)C1)N1CC(=O)NC(=O)C1 [Dexrazoxane] | 16.70% | 42.04% | 14.98% | 44.61% |  |  |  | 
CCc1cnn2c(NCc3ccc[n+]([O-])c3)cc(N3CCCC[C@H]3CCO)nc12 [Dinaciclib (SCH727965)] | 1.39% | 49.11% | 2.62% | 50.74% |  |  |  | 
CC(=O)O[C@@]12CO[C@@H]1C[C@H](O)[C@@]1(C)C(=O)[C@H](O)C3=C(C)[C@@H](OC(=O)[C@H](O)[C@@H](NC(=O)OC(C)(C)C)c4ccccc4)C[C@@](O)([C@@H](OC(=O)c4ccccc4)[C@H]21)C3(C)C [Docetaxel] | -5.60% | 52.34% | 2.03% | 51.03% |  |  |  | 
COc1cccc2c1C(=O)c1c(O)c3c(c(O)c1C2=O)C[C@@](O)(C(=O)CO)C[C@@H]3O[C@H]1C[C@H](N)[C@H](O)[C@H](C)O1 [Doxorubicin] | -11.25% | 54.95% | -1.25% | 52.66% |  |  |  | 
CN1CCC(COc2cnc(-c3cccc(Cn4nc(-c5cccc(C#N)c5)ccc4=O)c3)nc2)CC1 [EMD1214063] | 3.55% | 48.11% | 3.19% | 50.46% |  |  |  | 
Nc1ccccc1NC(=O)c1ccc(CNC(=O)OCc2cccnc2)cc1 [Entinostat] | -5.93% | 52.49% | -4.09% | 54.07% |  |  |  | 
CNC(=O)c1ccc(N2C(=S)N(c3ccc(C#N)c(C(F)(F)F)c3)C(=O)C2(C)C)cc1F [Enzalutamide] | -2.61% | 50.95% | -6.89% | 55.46% |  |  |  | 
Cn1cc(C2=C(c3cn(C4CCN(Cc5ccccn5)CC4)c4ccccc34)C(=O)NC2=O)c2ccccc21 [Enzastaurin] | -3.95% | 51.57% | -0.48% | 52.28% |  |  |  | 
COc1cccc2c1C(=O)c1c(O)c3c(c(O)c1C2=O)C[C@@](O)(C(=O)CO)C[C@@H]3O[C@H]1C[C@H](N)[C@@H](O)[C@H](C)O1 [Epirubicin hydrochloride] | -8.14% | 53.51% | -28.05% | 65.95% |  |  |  | 
C/C(=C\c1csc(C)n1)[C@@H]1C[C@@H]2O[C@]2(C)CCC[C@H](C)[C@H](O)[C@@H](C)C(=O)C(C)(C)[C@@H](O)CC(=O)O1 [Epothilone B (Patupilone)] | -5.33% | 52.21% | -7.34% | 55.68% |  |  |  | 
Cc1c(C(=O)Nc2ccc(N3C[C@@H](C)O[C@@H](C)C3)nc2)cccc1-c1ccc(OC(F)(F)F)cc1 [Erismodegib] | -2.59% | 50.95% | -6.71% | 55.37% |  |  |  | 
C#Cc1cccc(Nc2ncnc3cc(OCCOC)c(OCCOC)cc23)c1 [Erlotinib hydrochloride] | -99.93% | 95.90% | -12.97% | 58.47% |  |  |  | 
C[C@]12CC[C@@H]3c4ccc(OC(=O)N(CCCl)CCCl)cc4CC[C@H]3[C@@H]1CC[C@@H]2OP(=O)(O)O [Estramustine sodium phosphate] |  |  |  |  | 17.18% | 70.54% | 20.11% | 64.39%
COc1cc([C@@H]2c3cc4c(cc3[C@@H](O[C@@H]3O[C@@H]5CO[C@@H](C)O[C@H]5[C@H](O)[C@H]3O)[C@H]3COC(=O)[C@H]23)OCO4)cc(OC)c1O [Etoposide] | -0.43% | 49.95% | -2.73% | 53.40% |  |  |  | 

Source: paper PMC7588595, “Small-molecule active pharmaceutical ingredients of approved cancer therapeutics inhibit human aspartate/asparagine-β-hydroxylase” (Bioorganic & Medicinal Chemistry, 2020)
